Format in all cases: in vivo
Data set [1] is described as follows: Pharmacokinetic study in mice, oral (brain and blood levels by LC/MS/MS). Conditions: male, mouse, C57BL/6 mice, oral 10 mg/kg, brain.
Data set [2] relates to Aβ plaques. Put plainly: Immunohistochemistry of Aβ plaques (4G8 antibody), 5×FAD mice. The procedure:
Male 5×FAD mice were purchased from Jackson laboratories (Stock number 006554) and maintained at 23±2° C. temperature, 60±15% relative humidity with free access to food and water ad libitum. 5×FAD male mice were inbred with wild-type (WT, C57/BL6) female mice to produce heterozygous offspring. Offspring were genotyped to select 5×FAD (APP KM670/671NL (Swedish), APP I716V (Florida), APP V717I (London), PSEN1 M146L (A>C), PSEN1 L286V) gene mutations mice. Two months old WT and 5×FAD mice (male and female, n=10-14 per group) were treated daily with vehicle (1% sodium carbonyl methylcellulose [CMC-Na; Sigma-Aldrich, C5678]), curcumin analogue C1 (5 mg/kg, 10 mg/kg) or curcumin (50 mg/kg; Sigma-Aldrich, 08511) suspended in 1% CMC-Na by oral gavage for 4 months.
Mice half brains were fixed with 4% paraformaldehyde in PBS overnight and dehydrated in 30% sucrose in PBS for at least 24 h. Brain sections (30 μm) were cut on a microtome and stored at 4° C. in PBS+0.1% sodium azide. Sections were permeabilized for 10 min with cold PBS containing 0.5% Triton X-100 and blocked with 3% bovine serum albumin for 1 h at room temperature. The sections were incubated with biotinylated 4G8 antibody (800701, Biolegend) overnight, and then incubated with Avidin-Biotin enzyme complex (Vecstatin-ELITE ABC-HRP kit) and Aβ plaques were visualized by DAB peroxidase and quantified using ImageJ software.

In data set [3] the test system is 5×FAD mice. As to the kind of experiment: Long-term potentiation (TBS, MED64 multi-electrode array) in hippocampal slices of treated mice. As to conditions: female 5×FAD mice, 10 mg/kg oral 3 months, P<0.001. Here is the method: Heterozygous male 5×FAD mice purchased from Jackson laboratory (#006554) were maintained HKBU animal house at 23±2 OC and 60-15% relative humidity with free access to feed and water ad libitum. Male 5×FAD mice were bred with female wild-type C57BL/6. The produced heterozygous litters were maintained until their age 2 months. At 2 months age tail sample is collected in Non-ionic detergent buffer (50 mM KCL, 10 mM Tris-HCL, 2.5 mM mgCl2, 0.1 mg/ml Gelatin, 0.45% v/v NP-40, 0.45% v/v Tween 20 and 100 μgm/ml Proteinase K). Tail samples were incubated in 55° C. for overnight and denatured at 95° C. for 5 mins. Denatured samples were centrifuged, and supernatant is used for genotyping. Mice tail samples were genotyped using standard PCR protocol by using GoTaq G2 Green Master Mix (M7822), for APP, Forward 5′-[…]-3′ (SEQ ID NO: 81) and reverse, 5′-CGGGGGTCTAGTTCTGCAT-3′ (SEQ ID NO: 82). […]
Brain slice preparation: Wild type and 5× mice treated with or without C1 were cervical dislocated and rapidly brain was removed and placed in oxygenated ice-cold sucrose buffer (213 mM sucrose, 10 mM D-glucose, 2.5 mM KCL, 1.25 mM KH2PO4, 2.5 mM CaCl2, 10 mM MgSO4.7H2O, 75 mM NaCl and […] NaHCO3). […] Slope of each Excitatory Post Synaptic Potential […] (fEPSP) is calculated by using MED64-Quad II system and Mobius MED 64 software.

As a reminder, the Tmax is the time at which the peak concentration occurs. Regarding `COc1ccccc1/C=C/C(=O)/C=C/c1ccccc1OC` [Compound C1, 1,5-bis(2-methoxyphenyl)penta-1,4-dien-3-one], the Tmax in data set [1] is 30 min. The Cmax in data set [1] (read-out: maximum concentration (Cmax) in the brain) was determined as 1310 ± 89 ng/g. Also, the “Aβ plaque load in cortico-hippocampal sections” value in data set [2] (high dosage 10 mg/kg oral 4 months) and in data set [2] (low dosage 5 mg/kg oral 4 months) was “significant reduction” in each case. In data set [3], the “synaptic plasticity (long-term potentiation induced by TBS, fEPSP slope) vs vehicle” value was “significantly restored”.

(Values after patent US10987319B2, “TFEB activator C1 ameliorates app and tau pathology and rescues cognitive deficits in neurodegenerative diseases” (Hong Kong Baptist University, priority 2018, dated 2021).)
